The subject of series [1] is endothelial barrier. Briefly: Endothelial barrier integrity, Evans blue injected into circulation loop. In kind it is in vitro ADME, human. To be noted: tripartite and bipartite vessels. An excerpt: The integrity of the endothelial barrier in tripartite vessels was functionally assessed by injecting Evans blue into the circulation loop and compared to bipartite vessels. As expected, Evans blue was excluded in both tripartite and bipartite vessels (FIG. 1A).

The test system of series [2] is native apoE secreted by astrocytes. Briefly: Astrocyte apoE secretion in tripartite vessels (ELISA). In kind it is cell-based, human. To be noted: GW3965 circulated through lumen 72 h. On the procedure: All experiments were conducted under an approved clinical protocol (UBC Clinical Ethics Research Board H14-03357). Upon receipt of written informed consent, 100 ml of fasted blood was collected from normolipidemic healthy donors into vacutainer tubes containing EDTA. Plasma HDL (1.063-1.21 g/ml) was isolated by sequential potassium bromide gradient ultracentrifugation. The purity of the HDL preparations were verified by sodium dodecyl sulfate polyacrylamide gel electrophoresis (SDS-PAGE) followed by Coomassie blue staining to ensure no low-density lipoprotein (LDL) or albumin contamination. Total protein concentration was assessed using the bicinchoninic acid (BCA) assay (Thermofisher Scientific). Recombinant ApoE2 and ApoE4 were commercially purchased and solubilized following the manufacturer's instructions (ABCAM, apoE2 ab55210 and apoE4 ab50243). Secretion of endogenous ApoE from human astrocytes in tripartite vessels was induced by injecting 0.8 μM GW3965 in the circulation medium 72 h prior to addition of Aβ. ApoE concentrations were measured using enzyme linked immunosorbent assay (ELISA) as previously described (Fan et al. 2016 PLoS One. September 6; 11(9):e0162384). […] Fluorescence was read after 15 min at RT on an EnSpire 2300 Multilabel Plate Reader (325Ex/420Em). […]
In general terms: ELISA stands for enzyme-linked immunosorbent assay.

Series [3] deals with Aβ40. The series can be described thus: Aβ40 transport into luminal circulating medium, tripartite vessels (ELISA). In kind it is cell-based, human. The conditions noted are these: 1 μM Aβ40, over 4 h, GW3965 0.8 μM 72 h (astrocyte apoE), HDL 200 μg/ml. As for the experimental part: (§1) Recombinant Aβ40 and Aβ42 peptides (California Peptide) were dissolved in hexafluoroisopropanol (HFIP). The HFIP was removed by evaporation overnight and stocks were stored at −20° C. On the day of the assay, soluble monomers were prepared by reconstituting the peptide film in dimethylsulfoxide (DMSO) to 5 mM, diluted further to […] in Roswell Park Memorial Institute (RPMI) medium without FBS. 100 μl of Aβ solution was injected in the tissue chamber containing 900 μl of DMEM (Gibco) without FBS to the desired concentration using a syringe under flow conditions. For luminal recovery, 100 μl circulating medium was collected at the indicated time.
(§2) All experiments were conducted under an approved clinical protocol (UBC Clinical Ethics Research Board H14-03357). Upon receipt of written informed consent, 100 ml of fasted blood was collected from normolipidemic healthy donors into vacutainer tubes containing EDTA. Plasma HDL (1.063-1.21 g/ml) was isolated by sequential potassium bromide gradient ultracentrifugation. […] Total protein concentration was assessed using the bicinchoninic acid (BCA) assay (Thermofisher Scientific). […] ApoE concentrations were measured using enzyme linked immunosorbent assay (ELISA) as previously described (Fan et al. 2016 PLoS One. September 6; 11(9):e0162384). […] Fluorescence was read after 15 min at RT on an EnSpire 2300 Multilabel Plate Reader (325Ex/420Em). […]

Series [4] concerns Aβ42. The series can be described thus: Aβ42 accumulation in vascular tissue, tripartite vessels (ELISA). The conditions noted are these: after 24 h, relative to baseline tripartite conditions. In kind it is cell-based, human. On the procedure:
as §1, §2

Series [5] deals with Aβ42. Briefly: Aβ42 transport into luminal circulating medium, tripartite vessels (ELISA). The class given is cell-based, human. The conditions noted are these: 1 μM Aβ42, over 4 h, GW3965 0.8 μM 72 h (astrocyte apoE), HDL 200 μg/ml. On the procedure:
as §1, §2

The subject of series [6] is Aβ40. The series can be described thus: Aβ40 accumulation in vascular tissue, tripartite vessels (ELISA). In kind it is cell-based, human. To be noted: after 24 h, relative to baseline tripartite conditions. On the procedure:
as §1, §2

Series [7] relates to NO synthase. The series can be described thus: NO production by EC in tripartite vessels (conversion of L-3H-arginine to L-3H-citruline). The class given is cell-based, human. To be noted: 1 mM L-NAME with Ach or HDL stimulation. As for the experimental part: Nitric oxide (NO) synthesis was measured using a commercial nitric oxide synthesis (NOS) activity assay kit (Caymenchemical). Briefly, a 2-3 mm ring of vascular tissue was mechanically ground in 150 μl of ice-cold homogenized buffer (25 mM Tris-Cl, pH7.4, 1 mM EDTA and 1 mM EGTA) and centrifuged 15 min at 4° C. at 10,000 g. The supernatant was aliquoted and incubated in reaction buffer containing 25 mM Tris-Cl, pH7.4, 0.25 mM EDTA, 0.6 mM CaCl2, 1 mM NADP, 200 nM calmodulin, 3 μM tetrahydrobiopterin, 1 μM flavin adenine dinucleotide, 1 μM flavin adenine monoucleotide and 0.2 μCi L-^3H-arginine; PerkinElmer) in the presence of 10 nM acetylcholine (Ach), 0.2 mg/ml HDL or 1 mM L-NG-nitroarginine methyl ester (L-NAME). After 60 min at 37° C., the reaction was stopped by adding 400 μl of stop buffer ([…] HEPES, 5 mM EDTA, pH 5.5). […] Scintillation mix (Ultimate Gold, PerkinElmer) was added to the supernatant and counted using LS6500 β-counter (Beckman Coulter). The percent citrulline formed was calculated as follows: % conversion=(cpm reaction-cpm background)/cpm total*100.
The functionality of EC and astrocytes within tripartite bioengineered vessels was evaluated by measuring nitric oxide (NO) produced by EC and native apoE secreted by astrocytes, which were genotyped as apoE3/apoE3. […]

In series [8] the test system is Aβ42. The series can be described thus: Aβ42 accumulation in vascular tissue, bipartite vessels (ELISA). The class given is cell-based, human. To be noted: 1 μM Aβ42, 24 h, apoE ratio 25:1, HDL 200 μg/ml. On the procedure: as §1
(§3) Luminal medium was collected from the circulation chamber and 5 mm tissue rings were crushed and lysed in radioimmunoprecipitation assay (RIPA) buffer (10 mM Tris pH 7.4, 150 mM NaCl, 1.0% NP-40, 1.0% sodium deoxycholate, 0.1% SDS and cOmplete protease inhibitor with EDTA (Roche)). Aβ40 (KHB3442, Life Tech) and Aβ42 (KHB3482, Life Tech) were quantified using commercial ELISAs and normalized to total protein concentration, measured by BCA.
(§4) Bipartite vessels were prepared as described above. […]

For series [9], the system named is Aβ40. The series can be described thus: Aβ40 transport into luminal circulating medium, bipartite vessels (ELISA). The class given is cell-based, human. The conditions noted are these: 1 μM Aβ40, over 4 h, apoE ratio 25:1 antelumen, HDL 200 μg/ml circulating. As for the experimental part:
as §1, §3
(§5) Genetic variation in APOE represents a common genetic risk for AD, with apoE4 considered detrimental and apoE2 protective (Zlokovic, 2013 JAMA Neurol 70(4):440-444). […]

The test system of series [10] is Aβ42. Briefly: Aβ42 transport into luminal circulating medium, bipartite vessels (ELISA). The class given is cell-based, human. To be noted: 1 μM Aβ42, over 4 h, apoE ratio 25:1 antelumen, HDL 200 μg/ml circulating. On the procedure: as §1, §3, §4
Series [11] relates to Aβ40. The series can be described thus: Aβ40 accumulation in vascular tissue, bipartite vessels (ELISA). The conditions noted are these: 1 μM Aβ40, 24 h, apoE ratio 25:1, HDL 200 μg/ml. In kind it is cell-based, human. On the procedure:
as §1, §3, §5

The test system of series [12] is glutamate release. Briefly: Neuronal functionality: glutamate release from quadripartite tissue (HPLC). The class given is cell-based, human. The conditions noted are these: 50 nM KCl for 30 min. As for the experimental part:
After 21 days in culture, quadripartite tissue were harvested in Hanks buffered salt solution (HBSS) and cut in half. One half is incubated in HBSS without potassium chloride (KCl) and one half in HBSS with […] KCl. After 30 minutes buffer was collected and run through a GABA/glutamate affinity column on a high pressure liquid chromatography (HPLC) previously calibrated with glutamate standard (0 to 2.5 uM).
The functionality of the neurons was further evaluated by measuring glutamate release in the absence and presence of […] of KCL for 30 min. Glutamate release was then measured by HPLC (FIG. 9A). […] Finally, the secretion of endogenous neuronally-produced Aβ40 and Aβ42 in quadripartite tissue (FIG. 9B) and in circulatory medium (FIG. 9C) as measured by commercial ELISA as above.

Entries after “also recorded” stand apart in the source; their conditions may differ.

On to `Cc1cc(-c2ccc(/N=N/c3ccc4c(S(=O)(=O)O)cc(S(=O)(=O)O)c(N)c4c3O)c(C)c2)ccc1/N=N/c1ccc2c(S(=O)(=O)O)cc(S(=O)(=O)O)c(N)c2c1O` [Evans blue], for which the “Evans blue exclusion (integrity of the endothelial barrier)” value in series [1] was “excluded”. In the case of `O=C(O)Cc1cccc(OCCCN(Cc2cccc(C(F)(F)F)c2Cl)CC(c2ccccc2)c2ccccc2)c1` [GW3965], in series [2], the “secretion of native apoE” value is “significantly stimulated”. On to “apoE: Native apoE3 secreted from astrocytes in tripartite vessels, stimulated with GW3965 (0.8 μM) for 72 h”, for which the “rate of Aβ40 transport” value in series [3] is “neither apoE alone nor HDL alone modified the rate”. In addition, in series [4], the “accumulation of Aβ42 within tissue” value was “neither apoE, HDL, nor both apoE and HDL affected accumulation”. Also, the “rate of Aβ42 transport” value in [5] is on record as “neither apoE alone nor HDL alone modified the rate”. In addition, the “accumulation of Aβ40 within tissue” value in series [6] was “neither apoE, HDL, nor both apoE and HDL affected accumulation”. `COC(=O)[C@@H](N)CCCNC(=N)N[N+](=O)[O-]` [L-NAME, L-NG-nitroarginine methyl ester]: the “conversion of L-3H-arginine to L-3H-citruline in the presence of L-NAME” value in series [7] is recorded as “the conversion was blocked”. For the molecule “apoE2: Recombinant ApoE2, commercially purchased (ABCAM ab55210)”, the “Aβ42 accumulated in tissue” value in series [8] is reported as “selectively decreased; also recorded: significantly reduced”. Also, in series [9], the “Aβ40 transport (recovery into circulation medium)” value is “did not alter”. Moreover, in [10], the “Aβ42 transport (recovery into circulation medium)” value is on record as “did not alter”. In series [11], the “Aβ40 accumulated in tissue” value is “not significantly affected”. Regarding `[Cl-].[K+]` [KCl, potassium chloride], in series [12], the glutamate release entry is “increased glutamate release”. With “apoE4: Recombinant ApoE4, commercially purchased (ABCAM ab50243)”, the “Aβ42 accumulated in tissue” value in [8] is reported as “selectively elevated”.

The values are drawn from patent US10451637B2, “Synthetic blood vessels and uses thereof” (THE UNIVERSITY OF BRITISH COLUMBIA, priority 2017, dated 2019).
